Reference: US20250114374A1, “BCL-2 INHIBITORS” (Newave Pharmaceutical Inc., priority 2021, published 2025)
Like-named read-outs stand apart in the source and are kept apart here.

Test system: RS4; 11 with G101V mutation
Test: In vitro anti-proliferation assay (ATPlite luminescence) in BCL-2-dependent ALL cell line RS4;11 with G101V mutation
Type: cell-based
Details: read-out: RS411-G101V IC50
How it was run: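 RS4;11 G101V cells at about 1×10^4 per well were exposed to a range of compound concentrations for about 72 h in medium with 10% FBS. Cellular ATP was measured by ATPlite luminescence after lysis, and IC50 was derived from the dose-response.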

[1] = cellular anti-proliferative IC50, about 72 hours, medium with 10% FBS, ATPlite

SMILES	IC50 [1] [nM]	IC50 (Homo sapiens, RS4-11, 72 h) [nM]
CC(C)Oc1ccccc1[C@@H]1CN(C2CCC3(CCOCC3)CC2)CCN1C1CC2(CCN(c3ccc(C(=O)NS(=O)(=O)c4cc5c(c([N+](=O)[O-])c4)N[C@H](C4CCOCC4)CO5)c(N4c5cc6cc[nH]c6nc5O[C@H]5COCC[C@@H]54)c3)CC2)C1 (stereo partly drawn) [Example 209, 2-[(3R,8S)-2,5-dioxa-9,15,17-triazatetracyclo[8.7.0.0^{3,8}.0^{12,16}]heptadeca-1(10),11,13,16-tetraen-9-yl]-4-{2-[(2R)-2-(2-isopropoxyphenyl)-4-{3-oxaspiro[5.5]undecan-9-yl}piperazin-1-yl]-7-azaspiro[3.5]nonan-7-yl}-N-[(3R)-5-nitro-3-(oxan-4-yl)-3,4-dihydro-2H-1,4-benzoxazin-7-ylsulfonyl]benzamide]	16.3	
CC(C)Oc1ccccc1[C@@H]1CN(Cc2ccc(F)c(F)c2)CCN1C1CC2(CCN(c3ccc(C(=O)NS(=O)(=O)c4cc5c(c([N+](=O)[O-])c4)N[C@H](C4CCOCC4)CO5)c(N4c5cc6cc[nH]c6nc5O[C@@H]5COCC[C@H]54)c3)CC2)C1 [Example 239, 4-{2-[(2R)-4-[(3,4-difluorophenyl)methyl]-2-(2-isopropoxyphenyl)piperazin-1-yl]-7-azaspiro[3.5]nonan-7-yl}-2-[(3S,8R)-2,5-dioxa-9,15,17-triazatetracyclo[8.7.0.0^{3,8}.0^{12,16}]heptadeca-1(10),11,13,16-tetraen-9-yl]-N-[(3R)-5-nitro-3-(oxan-4-yl)-3,4-dihydro-2H-1,4-benzoxazin-7-ylsulfonyl]benzamide]	7.1	
CC(C)Oc1ccccc1[C@@H]1CN(C2CCOCC2)CCN1C1CC2(CCN(c3ccc(C(=O)NS(=O)(=O)c4cc5c(c([N+](=O)[O-])c4)N[C@H](C4CCOCC4)CO5)c(N4c5cc6cc[nH]c6nc5O[C@H]5COCC[C@@H]54)c3)CC2)C1 [Example 182, 4-(2-((R)-2-(2-isopropoxyphenyl)-4-(tetrahydro-2H-pyran-4-yl)piperazin-1-yl)-7-azaspiro[3.5]nonan-7-yl)-N-(((R)-5-nitro-3-(tetrahydro-2H-pyran-4-yl)-3,4-dihydro-2H-benzo[b][1,4]oxazin-7-yl)sulfonyl)-2-((5aS,9aR)-6,7,9,9a-tetrahydro-1H-pyrano[3,4-b]pyrrolo[3′,2′:5,6]pyrido[3,2-e][1,4]oxazin-5(5aH)-yl)benzamide]		58.1
CC(C)Oc1ccccc1[C@@H]1CN(Cc2ccc(F)c(F)c2)CCN1C1CC2(CCN(c3cc(N4c5cc6cc[nH]c6nc5O[C@H]5COCC[C@@H]54)c(C(=O)NS(=O)(=O)c4cc5c(c([N+](=O)[O-])c4)N[C@H](C4CCOCC4)CO5)cc3F)CC2)C1 [Example 227, 4-{2-[(2R)-4-[(3,4-difluorophenyl)methyl]-2-(2-isopropoxyphenyl)piperazin-1-yl]-7-azaspiro[3.5]nonan-7-yl}-2-[(3R,8S)-2,5-dioxa-9,15,17-triazatetracyclo[8.7.0.0^{3,8}.0^{12,16}]heptadeca-1(10),11,13,16-tetraen-9-yl]-5-fluoro-N-[(3R)-5-nitro-3-(oxan-4-yl)-3,4-dihydro-2H-1,4-benzoxazin-7-ylsulfonyl]benzamide]	119	
CC(C)Oc1ccccc1[C@H]1CN(Cc2ccnc3c2OCC(C)(C)O3)CCN1C1CC2(CCN(c3ccc(C(=O)NS(=O)(=O)c4ccc(NCC5CCC(C)(O)CC5)c([N+](=O)[O-])c4)c(N4c5cc6cc[nH]c6nc5O[C@H]5COCC[C@@H]54)c3)CC2)C1 (stereo partly drawn) [Example 127, 4-(2-((S)-4-((3,3-dimethyl-2,3-dihydro-[1,4]dioxino[2,3-b]pyridin-8-yl)methyl)-2-(2-isopropoxyphenyl)piperazin-1-yl)-7-azaspiro[3.5]nonan-7-yl)-N-((4-((((1r,4r)-4-hydroxy-4-methylcyclohexyl)methyl)amino)-3-nitrophenyl)sulfonyl)-2-((5aS,9aR)-6,7,9,9a-tetrahydro-1H-pyrano[3,4-b]pyrrolo[3′,2′:5,6]pyrido[3,2-e][1,4]oxazin-5(5aH)-yl)benzamide]	8.1	
COc1ncc(CN2CCN(C3CC4(CCN(c5ccc(C(=O)NS(=O)(=O)c6ccc(NCC7CCC(C)(O)CC7)c([N+](=O)[O-])c6)c(N6c7cc8cc[nH]c8nc7O[C@H]7COCC[C@@H]76)c5)CC4)C3)[C@@H](c3ccccc3OC(C)C)C2)cc1C1CC1 (stereo partly drawn) [Example 136, 4-{2-[(2S)-4-[(5-cyclopropyl-6-methoxypyridin-3-yl)methyl]-2-(2-isopropoxyphenyl)piperazin-1-yl]-7-azaspiro[3.5]nonan-7-yl}-2-[(3R,8S)-2,5-dioxa-9,15,17-triazatetracyclo[8.7.0.0^{3,8}.0^{12,16}]heptadeca-1(10),11,13,16-tetraen-9-yl]-N-[3-nitro-4-({[(1r,4r)-4-hydroxy-4-methylcyclohexyl]methyl}amino)benzenesulfonyl]benzamide]	35.6	
Cc1ccccc1[C@@H]1CN(Cc2cnc(N3CCOC[C@@H]3C)c(C)c2)CCN1C1CC2(CCN(c3ccc(C(=O)NS(=O)(=O)c4cc5c(c([N+](=O)[O-])c4)N[C@H](C4CCOCC4)CO5)c(N4c5cc6cc[nH]c6nc5O[C@H]5COCC[C@@H]54)c3)CC2)C1 [Example 205, 2-[(3R,8S)-2,5-dioxa-9,15,17-triazatetracyclo[8.7.0.0^{3,8}.0^{12,16}]heptadeca-1(10),11,13,16-tetraen-9-yl]-4-{2-[(2R)-4-({5-methyl-6-[(3S)-3-methylmorpholin-4-yl]pyridin-3-yl}methyl)-2-(2-methylphenyl)piperazin-1-yl]-7-azaspiro[3.5]nonan-7-yl}-N-[(3R)-5-nitro-3-(oxan-4-yl)-3,4-dihydro-2H-1,4-benzoxazin-7-ylsulfonyl]benzamide]	21.3	
CC(C)Oc1ccccc1[C@@H]1CN([C@H]2CCOc3c(F)cc(F)cc32)CCN1C1CC2(CCN(c3ccc(C(=O)NS(=O)(=O)c4cc5c(c([N+](=O)[O-])c4)N[C@H](C4CCOCC4)CO5)c(N4c5cc6cc[nH]c6nc5O[C@H]5COCC[C@@H]54)c3)CC2)C1 [Example 214, 4-(2-((R)-4-((S)-6,8-difluorochroman-4-yl)-2-(2-isopropoxyphenyl)piperazin-1-yl)-7-azaspiro[3.5]nonan-7-yl)-N-(((R)-5-nitro-3-(tetrahydro-2H-pyran-4-yl)-3,4-dihydro-2H-benzo[b][1,4]oxazin-7-yl)sulfonyl)-2-((5aS,9aR)-6,7,9,9a-tetrahydro-1H-pyrano[3,4-b]pyrrolo[3′,2′:5,6]pyrido[3,2-e][1,4]oxazin-5(5aH)-yl)benzamide]		385
CC(C)Oc1ccccc1[C@H]1CN(C2CCC(N3CCOC[C@H]3C)CC2)CCN1C1CC2(CCN(c3ccc(C(=O)NS(=O)(=O)c4ccc(NCC5CCC(C)(O)CC5)c([N+](=O)[O-])c4)c(N4c5cc6cc[nH]c6nc5O[C@H]5COCC[C@@H]54)c3)CC2)C1 (stereo partly drawn) [Example 160, N-((4-((((1r,4r)-4-hydroxy-4-methylcyclohexyl)methyl)amino)-3-nitrophenyl)sulfonyl)-4-(2-((S)-2-(2-isopropoxyphenyl)-4-((1S,4R)-4-((R)-3-methylmorpholino)cyclohexyl)piperazin-1-yl)-7-azaspiro[3.5]nonan-7-yl)-2-((5aS,9aR)-6,7,9,9a-tetrahydro-1H-pyrano[3,4-b]pyrrolo[3′,2′:5,6]pyrido[3,2-e][1,4]oxazin-5(5aH)-yl)benzamide]	22.8	
CC(C)Oc1ccccc1[C@@H]1CN([C@H]2CCOc3c2ccc(F)c3F)CCN1C1CC2(CCN(c3ccc(C(=O)NS(=O)(=O)c4cc5c(c([N+](=O)[O-])c4)N[C@H](C4CCOCC4)CO5)c(N4c5cc6cc[nH]c6nc5O[C@H]5COCC[C@@H]54)c3)CC2)C1 [Example 213, 4-{2-[(2R)-4-[(4S)-7,8-difluoro-3,4-dihydro-2H-1-benzopyran-4-yl]-2-(2-isopropoxyphenyl)piperazin-1-yl]-7-azaspiro[3.5]nonan-7-yl}-2-[(3R,8S)-2,5-dioxa-9,15,17-triazatetracyclo[8.7.0.0^{3,8}.0^{12,16}]heptadeca-1(10),11,13,16-tetraen-9-yl]-N-[(3R)-5-nitro-3-(oxan-4-yl)-3,4-dihydro-2H-1,4-benzoxazin-7-ylsulfonyl]benzamide]	23.8	
CC[C@H](c1ccc(F)c(F)c1)N1CCN(C2CC3(CCN(c4ccc(C(=O)NS(=O)(=O)c5cc6c(c([N+](=O)[O-])c5)N[C@H](C5CCOCC5)CO6)c(N5c6cc7cc[nH]c7nc6O[C@H]6COCC[C@@H]65)c4)CC3)C2)[C@H](c2ccccc2OC(C)C)C1 [Example 246, 4-(2-((R)-4-((R)-1-(3,4-difluorophenyl)propyl)-2-(2-isopropoxyphenyl)piperazin-1-yl)-7-azaspiro[3.5]nonan-7-yl)-N-(((R)-5-nitro-3-(tetrahydro-2H-pyran-4-yl)-3,4-dihydro-2H-benzo[b][1,4]oxazin-7-yl)sulfonyl)-2-((5aS,9aR)-6,7,9,9a-tetrahydro-1H-pyrano[3,4-b]pyrrolo[3′,2′:5,6]pyrido[3,2-e][1,4]oxazin-5(5aH)-yl)benzamide]		209
CC(C)Oc1ccccc1[C@@H]1CN(Cc2ccc(F)c(F)c2)CCN1C1CC2(CCN(c3ccc(C(=O)NS(=O)(=O)c4ccc(NCC5CCOCC5)c([N+](=O)[O-])c4)c(N4c5cc6cc[nH]c6nc5O[C@H]5COCC[C@@H]54)c3)CC2)C1 [Example 186, 4-{2-[(2R)-4-[(3,4-difluorophenyl)methyl]-2-(2-isopropoxyphenyl)piperazin-1-yl]-7-azaspiro[3.5]nonan-7-yl}-2-[(3R,8S)-2,5-dioxa-9,15,17-triazatetracyclo[8.7.0.0^{3,8}.0^{12,16}]heptadeca-1(10),11,13,16-tetraen-9-yl]-N-{3-nitro-4-[(oxan-4-ylmethyl)amino]benzenesulfonyl}benzamide]	10.6	
